Assay results as given in patent publication US20240216401A1, “COMBINATION THERAPY BY USING AKR1C3-ACTIVATED COMPOUND WITH IMMUNE CHECKPOINT INHIBITOR” (OBI Pharma, Inc., priority 2021, published 2024).
“And” between values parts separate entries of the source, which are not always exact repeats. Equal values may be shown once.

Tests used:
[1] = system: NK cells in tumor-infiltrating lymphocytes; experiment: Example 2: flow cytometry, percentage of NK cells in TILs; type: in vivo, Mus musculus; conditions: individual animals and Mean
Method: (§1) Mice were sacrificed by CO2 euthanasia at the end of the study duration, and the connective tissue around tumor was resected. The tumor samples were then weighed and cut equally into three sections if the tumor weight over 400 mg. The tumor tissue was prepared for the isolation of tumor-infiltrating lymphocytes (TILs). The rest of one section was fixed in 10% formaldehyde and embedded in paraffin; the other was stored at a temperature below −70° C.
(§2) The tumor samples were dissected into smaller fragments using scalpels and then digested with a cocktail of collagenase, DNase I, and Hyaluronidase (Collagenase #C5138, DNase I #D5025, Hyaluronidase #H6254, SigmaAldrich) for at least 2 hours.
(§3) Cells were stained with the fluorescently conjugated surface antibodies and incubated for 30 minutes at 4° C., and then resuspended in staining buffer for flow cytometric analysis. Flow cytometry was done using a Navios EX Flow Cytometer (Beckman Coulter). Data were analyzed using the Kaluza Analysis Software (Beckman Coulter).

[2] = system: PD-L1^+ cells in tumor-infiltrating lymphocytes; experiment: Example 2: flow cytometry, percentage of PD-L1^+ cells in TILs; type: in vivo, Mus musculus
Method: as §1, §2, §3

[3] = G2: OBI-3424 (0.3 mg/kg), 0.3 mg/kg, mean
[4] = G3: OBI-3424 (1 mg/kg), 1 mg/kg
[5] = G3: OBI-3424 (1 mg/kg), 1 mg/kg, mean
[6] = G2, OBI-3424 0.3 mg/kg, group Mean
[7] = G2, OBI-3424 0.3 mg/kg, individual animal, 0.3 mg/kg
[8] = G3, OBI-3424 1 mg/kg, group Mean
[9] = G3, OBI-3424 1 mg/kg, individual animal, 1 mg/kg

**Q.** Which results are given for `C[C@H](OP(=O)(N1CC1)N1CC1)c1ccc([N+](=O)[O-])c(Oc2cccc(C(=O)N(C)C)c2)c1` [OBI-3424, (S)-1-(3-(3-N,N-dimethylaminocarbonyl)phenoxyl-4-mtrophenyl)-1-ethyl-N,N′-bis(ethylene)phosphoramidate]?
**A.** PD-1^+ NK cells (CD45^+CD56^+PD-1^+) Total % ([1]; G2: OBI-3424 (0.3 mg/kg), 0.3 mg/kg): 0.85% and 1.08% and 2.01% and 1.44% and 0.88% and 1.14%; NK cells (CD45^+CD56^+) CD45^+ Gated % [1, 3]: 7.16%; NK cells (CD45^+CD56^+) Cell count [1, 3]: 5.90 ×10^5; NK cells (CD45^+CD56^+) Total % [1, 3]: 3.11%; PD-1^+ NK cells (CD45^+CD56^+PD-1^+) Cell count [1, 3]: 3.00 ×10^5; PD-1^+ NK cells (CD45^+CD56^+PD-1^+) NK Gated % [1, 3]: 51.85%; PD-1^+ NK cells (CD45^+CD56^+PD-1^+) Total % [1, 3]: 1.23%; NK cells (CD45^+CD56^+) CD45^+ Gated % [1, 4]: 3.99% (2×) and 5.65% and 6.00% and 4.05% and 4.24%; NK cells (CD45^+CD56^+) Cell count [1, 4]: 0.77 ×10^5 and 4.27 ×10^5 and 2.08 ×10^5 and 2.41 ×10^5 and 1.96 ×10^5 and 1.99 ×10^5; NK cells (CD45^+CD56^+) Total % [1, 4]: 2.64% and 3.38% and 2.95% and 2.44% and 2.63% and 2.46%; PD-1^+ NK cells (CD45^+CD56^+PD-1^+) Cell count [1, 4]: 0.26 ×10^5 and 1.64 ×10^5 and 1.02 ×10^5 and 1.77 ×10^5 (2×) and 1.04 ×10^5; PD-1^+ NK cells (CD45^+CD56^+PD-1^+) NK Gated % [1, 4]: 34.34% and 38.34% and 48.85% and 73.40% and 53.12% and 88.62%; PD-1^+ NK cells (CD45^+CD56^+PD-1^+) Total % [1, 4]: 0.91% and 1.30% and 1.44% and 1.79% and 1.40% and 2.18%; NK cells (CD45^+CD56^+) CD45^+ Gated % [1, 5]: 4.65%; NK cells (CD45^+CD56^+) Cell count [1, 5]: 2.25 ×10^5; NK cells (CD45^+CD56^+) Total % [1, 5]: 2.75%; PD-1^+ NK cells (CD45^+CD56^+PD-1^+) Cell count [1, 5]: 1.25 ×10^5; PD-1^+ NK cells (CD45^+CD56^+PD-1^+) NK Gated % [1, 5]: 56.11%; PD-1^+ NK cells (CD45^+CD56^+PD-1^+) Total % [1, 5]: 1.50%; PD-L1^+ cells (CD45^− PD-L1^+), CD45^− Gated % [2, 6]: 9.15%; PD-L1^+ cells (CD45^− PD-L1^+), Cell count [2, 6]: 4.91 ×10^5; PD-L1^+ cells (CD45^− PD-L1^+), Total % [2, 6]: 1.95%; Total PD-L1^+ cells (PD-L1^+), Cell count [2, 6]: 9.60 ×10^5; Total PD-L1^+ cells (PD-L1^+), Total % [2, 6]: 3.79%; Total PD-L1^+ cells (PD-L1^+), Total cells Gated % [2, 6]: 5.18%; PD-L1^+ cells (CD45^− PD-L1^+), CD45^− Gated % [2, 7]: 15.51% and 5.86% and 9.64% and 4.13% and 12.53% and 7.23%; PD-L1^+ cells (CD45^− PD-L1^+), Cell count [2, 7]: 9.41 ×10^5 and 2.07 ×10^5 and 10.69 ×10^5 and 0.07 ×10^5 and 6.63 ×10^5 and 0.61 ×10^5; PD-L1^+ cells (CD45^− PD-L1^+), Total % [2, 7]: 4.84% and 1.01% and 1.98% and 0.35% and 2.69% and 0.84%; Total PD-L1^+ cells (PD-L1^+), Cell count [2, 7]: 14.43 ×10^5 and 6.01 ×10^5 and 24.62 ×10^5 and 0.29 ×10^5 and 10.67 ×10^5 and 1.56 ×10^5; Total PD-L1^+ cells (PD-L1^+), Total % [2, 7]: 7.42% and 2.94% and 4.56% and 1.34% and 4.33% and 2.15%; Total PD-L1^+ cells (PD-L1^+), Total cells Gated % [2, 7]: 11.84% and 3.97% and 5.50% and 1.44% and 5.16% and 3.16%; PD-L1^+ cells (CD45^− PD-L1^+), CD45^− Gated % [2, 8]: 4.40%; PD-L1^+ cells (CD45^− PD-L1^+), Cell count [2, 8]: 0.38 ×10^5; PD-L1^+ cells (CD45^− PD-L1^+), Total % [2, 8]: 0.48%; Total PD-L1^+ cells (PD-L1^+), Cell count [2, 8]: 1.61 ×10^5; Total PD-L1^+ cells (PD-L1^+), Total % [2, 8]: 2.08%; Total PD-L1^+ cells (PD-L1^+), Total cells Gated % [2, 8]: 2.24%; PD-L1^+ cells (CD45^− PD-L1^+), CD45^− Gated % [2, 9]: 4.18% and 2.31% and 4.37% and 7.16% and 4.63%; PD-L1^+ cells (CD45^− PD-L1^+), Cell count [2, 9]: 0.08 ×10^5 and 0.30 ×10^5 and 0.41 ×10^5 and 0.51 ×10^5 and 0.49 ×10^5 and 0.47 ×10^5; PD-L1^+ cells (CD45^− PD-L1^+), Total % [2, 9]: 0.27% and 0.24% and 0.58% (2×) and 0.52% and 0.66%; Total PD-L1^+ cells (PD-L1^+), Cell count [2, 9]: 0.46 ×10^5 and 1.50 ×10^5 and 2.03 ×10^5 and 1.69 ×10^5 and 1.67 ×10^5 and 2.32 ×10^5; Total PD-L1^+ cells (PD-L1^+), Total % [2, 9]: 1.58% and 1.19% and 2.88% and 1.71% and 2.24% and 2.86%; Total PD-L1^+ cells (PD-L1^+), Total cells Gated % [2, 9]: 1.66% and 1.26% and 3.32% and 1.80% and 2.39% and 3.03%
